Test results as given in patent US11471456B2, “Formulations comprising heterocyclic protein kinase inhibitors” (Sumitomo Pharma Oncology, Inc., priority 2019, dated 2022).
Values after ≈ are worked out from the molar mass of the structure shown. Read-outs that look alike come from different tables or passages of the source.

Legend:
[1] = DVS (hygroscopicity) of free base and salts; format: physicochemical
[2] = Phase 1 first-in-human escalating dose study in patients with advanced solid tumors; format: in vivo
Protocol: The study is currently enrolling Cohort 3 at a dose level of 1080 mg qd.

[3] = Oral bioavailability of the compound of structure (I) in rats with different excipients; format: in vivo; conditions: for bioavailability: rat, in vivo, po
[4] = HPLC solubility in SGF, FaSSIF, FeSSIF at 37° C.; format: physicochemical; conditions: thermodynamic from solid
Protocol: HPLC Method. The chromatographic conditions for HPLC are summarized below.
The samples were then centrifuged and filtered. Saturated solutions were diluted with MeOH:H2O=1:2 (v:v), and the concentrations were determined by HPLC. The final pH of the saturated solutions was tested.

What does the source list for `CC(C)(O)C1CCC(Nc2ccc3ncc(-c4cccc(C(F)(F)F)c4)n3n2)CC1.Cl` [Hydrochloric acid salt, 2-((1R,4R)-4-((3-(3-(trifluoromethyl)phenyl)imidazo[1,2-b]pyridazin-6-yl)amino)cyclohexyl)propan-2-ol hydrochloride]?
DVS (weight gain, %) [1]: 2.83%; hygroscopicity by DVS compared with methanesulfonic acid salt [1]: much lower hygroscopicity

For `CC(C)(O)[C@H]1CC[C@H](Nc2ccc3ncc(-c4cccc(C(F)(F)F)c4)n3n2)CC1` [compound of structure (I), 2-((1R,4R)-4-((3-(3-(trifluoromethyl)phenyl)imidazo[1,2-b]pyridazin-6-yl)amino)cyclohexyl)propan-2-ol], which “changes in hematological parameters including platelets, WBC counts and hemoglobin” value ([2]; 480 mg qd and 720 mg qd cohorts (3 patients each), first cycle, preliminary data) is on record?
The value was “no marked changes in hematological parameters”.

And the “side effects, regardless of causality, occurring with a frequency equal to 2 or greater” value ([2]; 480 mg qd and 720 mg qd cohorts, preliminary data)?
Its value is “diarrhea, nausea and vomiting”.

And the “severity of the side effect events” value ([2]; all Grade 1, except one event that was Grade 2)?
The value was “mild in severity”.

What about the “Oral Bioavailability (% F)” value ([3]; Dry Powder (capsule), administered alone) of the same molecule?
The value was “poor bioavailability”.

What about the bioavailability ([3]; Dry Powder (capsule), administered alone, read-out: Oral Bioavailability (% F)) of the same molecule?
The bioavailability was 0%.

And the bioavailability ([3]; excipient 10% EtOH/10% PEG300/20% HS15, read-out: Oral Bioavailability (% F))?
The bioavailability was 38%.

And the bioavailability ([3]; excipient 10% EtOH/40% PG, read-out: Oral Bioavailability (% F))?
The bioavailability was 2%.

What about the bioavailability ([3]; excipient 10% PS-20, read-out: Oral Bioavailability (% F)) of the same molecule?
Its bioavailability is 39%.

And the bioavailability ([3]; excipient 10% PS-20/50% PEG400, read-out: Oral Bioavailability (% F))?
The bioavailability was 15%.

And the bioavailability ([3]; excipient Corn Oil, read-out: Oral Bioavailability (% F))?
Its bioavailability is 0%.

And the bioavailability ([3]; excipient HPβCD, read-out: Oral Bioavailability (% F))?
Its bioavailability is 11%.

And the “DVS (weight gain, %)” value [1]?
The value was 1.60%.

And the “hygroscopicity by DVS compared with methanesulfonic acid salt” value [1]?
Its value is “much lower hygroscopicity”.

And the solubility at 0.5 h ([4]; simulated gastric fluid, SGF)?
Its solubility at 0.5 h is 1360 µg/mL (≈ 3250 µM).

What about the solubility at 2 h ([4]; simulated gastric fluid, SGF) of the same molecule?
Its solubility at 2 h is 1270 µg/mL (≈ 3030 µM).

And the solubility at 24 h ([4]; simulated gastric fluid, SGF)?
The solubility at 24 h was 903 µg/mL (≈ 2160 µM).

What about the solubility at 0.5 h ([4]; FaSSIF) of the same molecule?
Its solubility at 0.5 h is 10.4 µg/mL (≈ 24.9 µM).

And the solubility at 2 h ([4]; FaSSIF)?
Its solubility at 2 h is 9.81 µg/mL (≈ 23.4 µM).

What about the solubility at 24 h ([4]; FaSSIF) of the same molecule?
Its solubility at 24 h is 7.91 µg/mL (≈ 18.9 µM).

What about the solubility at 0.5 h ([4]; FeSSIF) of the same molecule?
The solubility at 0.5 h was 96.8 µg/mL (≈ 231 µM).

And the solubility at 24 h ([4]; FeSSIF)?
Its solubility at 24 h is 91.5 µg/mL (≈ 219 µM).
